According to patent US10723741B1, “DNA polymerase IIIC inhibitors and use thereof” (Acurx Pharmaceuticals, LLC, priority 2018, dated 2020):
≈ marks a conversion by molar mass, not a printed value. Counter-ions that a name gives are not always drawn. Like-named read-outs stand apart in the source and are kept apart here.

Tests used:
Format in all cases: cell-based
[1] = system: Enterococcus faecalis ATCC 29212; test: Broth microdilution MIC, E. faecalis ATCC 29212; conditions: read-out: MIC E. faecalis ATCC 29212
How it was run: (§1)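 Two-fold dilutions from 64 to 0.0625 μg/ml final, 1% DMSO, were inoculated at ~5.0×10^5 cfu/ml in the strain's test medium and kept 20 h at 37 °C in ambient atmosphere. Colonies were grown on MHA, with S. pneumoniae on blood agar under 5% CO2.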

[2] = system: Staphylococcus aureus NRS384 (MRSA); test: Broth microdilution MIC, S. aureus NRS384 (MRSA); design: MIC NRS 384 (MRSA): unit not given here; conditions: broth microdilution, 37° C., 20 hours; for MIC: Staphylococcus aureus, read-out: MIC NRS 384 (MRSA)
How it was run: as §1

[3] = system: Escherichia coli ATCC 25922; test: Broth microdilution MIC, E. coli ATCC 25922 (MHIIB w & w/o 4 mM EDTA); conditions: for MIC: Escherichia coli, read-out: MIC E. coli ATCC 25922; for MIC E. coli ATCC 25922 + 4 mM EDTA: with 4 mM EDTA
How it was run: as §1

[4] = system: Streptococcus pneumoniae ATCC 49619; test: Broth microdilution MIC, S. pneumoniae ATCC 49619; conditions: read-out: MIC S. pneumoniae ATCC 49619
How it was run: as §1

[5] = system: Enterococcus faecium ATCC 700221 (VRE); test: Broth microdilution MIC, E. faecium ATCC 700221 (VRE); design: MIC E. faecium ATCC 700221 (VRE): unit: ug/mL; conditions: broth microdilution, 37° C., 20 hours; for MIC: Enterococcus faecium, read-out: MIC E. faecium ATCC 700221 (VRE)
How it was run: as §1

[6] = system: Bacillus subtilis ATCC 6633; test: Broth microdilution MIC, B. subtilis ATCC 6633; conditions: read-out: MIC B. subtilis ATCC 6633
How it was run: as §1

[7] = system: Staphylococcus aureus ATCC 29213 (MSSA); test: Broth microdilution MIC, S. aureus ATCC 29213 (MSSA); conditions: read-out: MIC S. aureus ATCC 29213 (MSSA)
How it was run: as §1

[8] = ATCC29212, broth microdilution, 37° C., 20 hours
[9] = ATCC25922, without EDTA, broth microdilution, 37° C., 20 hours
[10] = broth microdilution, 37° C., 20 hours
[11] = ATCC49619, broth microdilution, 37° C., 20 hours
[12] = ATCC6633, broth microdilution, 37° C., 20 hours

SMILES	MIC [1, 8] [µg/mL]	MIC [2] [µg/mL]	MIC [3, 9] [µg/mL]	MIC E. coli ATCC 25922 + 4 mM EDTA [3, 10]	MIC [4, 11] [µg/mL]	MIC [5] [µg/mL]	MIC [6, 12] [µg/mL]	MIC [7, 10] [µg/mL]	MIC ([1]; ATCC29212, 20 h) [µg/mL]	MIC NRS 384 (MRSA) [2]	MIC ([3]; ATCC25922, 20 h) [µg/mL]	MIC ([4]; ATCC49619, 20 h) [µg/mL]	MIC E. faecium ATCC 700221 (VRE) [5]	MIC ([6]; ATCC6633, 20 h) [µg/mL]	MIC ([7]; 20 h) [µg/mL]
O=C(Cn1ncc2nc(NCc3ccc(Cl)c(Cl)c3)[nH]c(=O)c21)N1CCOCC1 [Compound 158, 5-((3,4-dichlorobenzyl)amino)-1-(2-morpholino-2-oxoethyl)-1H-pyrazolo[4,3-d]pyrimidin-7(6H)-one]	16 (≈ 36.6 µM)	32 (≈ 73.2 µM)	> 64	>64 µg/mL	4 (≈ 9.15 µM)	8 (≈ 18.3 µM)	8 (≈ 18.3 µM)	16 (≈ 36.6 µM)	–	–	–	–	–	–	–
CN1CC(Cn2ncc3nc(NCc4ccc(Cl)c(Cl)c4)[nH]c(=O)c32)CC1=O (stereo not shown) [Compound 159, 5-((3,4-dichlorobenzyl)amino)-1-((1-methyl-5-oxopyrrolidin-3-yl)methyl)-1H-pyrazolo[4,3-d]pyrimidin-7(6H)-one]	8 (≈ 19 µM)	8 (≈ 19 µM)	> 64	>64 µg/mL	2 (≈ 4.75 µM)	2 (≈ 4.75 µM)	2 (≈ 4.75 µM)	8 (≈ 19 µM)	–	–	–	–	–	–	–
Cl.Cl.O=c1[nH]c(NCc2ccc(Cl)c(Cl)c2)nc2cnn(C3CCN(c4ccccn4)CC3)c12 [Compound 161, 5-((3,4-dichlorobenzyl)amino)-1-(1-(pyridin-2-yl)piperidin-4-yl)-1H-pyrazolo[4,3-d]pyrimidin-7(6H)-one dihydrochloride]	> 64	4	> 64	>64 µg/mL	16	2	2	8	–	–	–	–	–	–	–
O=c1[nH]c(NCc2ccc(Cl)c(Cl)c2)nc2cnn(C3CCN(c4ccncc4)CC3)c12 [Compound 162, 5-((3,4-dichlorobenzyl)amino)-1-(1-(pyridin-4-yl)piperidin-4-yl)-1H-pyrazolo[4,3-d]pyrimidin-7(6H)-one dihydrochloride]	–	–	–	8 µg/mL	–	–	–	–	4	2/4	> 64	2	2/2	1	4
O=c1[nH]c(NCc2ccc(Cl)c(Cl)c2)nc2cnn(C3CCN(c4cccnc4)CC3)c12 [Compound 163, 5-((3,4-dichlorobenzyl)amino)-1-(1-(pyridin-3-yl)piperidin-4-yl)-1H-pyrazolo[4,3-d]pyrimidin-7(6H)-one dihydrochloride]	–	–	–	>64 µg/mL	–	–	–	–	> 64	2/2	> 64	8	2/2	0.5	2
CS(=O)(=O)NC(=O)Cn1ncc2nc(NCc3ccc(Cl)c(Cl)c3)[nH]c(=O)c21 [Compound 165, 2-(5-((3,4-dichlorobenzyl)amino)-7-oxo-6,7-dihydro-1H-pyrazolo[4,3-d]pyrimidin-1-yl)-N-(methylsulfonyl)acetamide]	> 64	> 64	> 64	>64 µg/mL	> 64	> 64	> 64	> 64	–	–	–	–	–	–	–
CN1CCCC(c2nc(Cn3ncc4nc(NCc5ccc(Cl)c(Cl)c5)[nH]c(=O)c43)co2)C1.Cl (stereo not shown) [Compound 172, 5-((3,4-dichlorobenzyl)amino)-1-((2-(1-methylpiperidin-3-yl)oxazol-4-yl)methyl)-1H-pyrazolo[4,3-d]pyrimidin-7(6H)-one hydrochloride]	16	16	> 64	64 µg/mL	8	8	4	16	–	–	–	–	–	–	–
Cl.O=c1[nH]c(NCc2ccc(Cl)c(Cl)c2)nc2cnn(Cc3coc(C4CCCNC4)n3)c12 (stereo not shown) [Compound 173, 5-((3,4-dichlorobenzyl)amino)-1-((2-(piperidin-3-yl)oxazol-4-yl)methyl)-1H-pyrazolo[4,3-d]pyrimidin-7(6H)-one hydrochloride]	32	32	> 64	64 µg/mL	8	32	8	32	–	–	–	–	–	–	–

The next lines start with results.

MIC [1, 8] [µg/mL]	MIC [2] [µg/mL]	MIC [3, 9] [µg/mL]	MIC E. coli ATCC 25922 + 4 mM EDTA [3, 10]	MIC [4, 11] [µg/mL]	MIC [5] [µg/mL]	MIC [6, 12] [µg/mL]	MIC [7, 10] [µg/mL]	SMILES	MIC ([1]; ATCC29212, 20 h) [µg/mL]	MIC NRS 384 (MRSA) [2]	MIC ([3]; ATCC25922, 20 h) [µg/mL]	MIC ([4]; ATCC49619, 20 h) [µg/mL]	MIC E. faecium ATCC 700221 (VRE) [5]	MIC ([6]; ATCC6633, 20 h) [µg/mL]	MIC ([7]; 20 h) [µg/mL]
16	16	> 64	64 µg/mL	4	8	4	16	Cl.O=c1[nH]c(NCc2ccc(Cl)c(Cl)c2)nc2cnn(CCOCCN3CCOCC3)c12 [Compound 160, 5-((3,4-dichlorobenzyl)amino)-1-(2-(2-morpholinoethoxy)ethyl)-1H-pyrazolo[4,3-d]pyrimidin-7(6H)-one hydrochloride]	–	–	–	–	–	–	–
32 (≈ 71.7 µM)	64 (≈ 143 µM)	> 64	>64 µg/mL	4 (≈ 8.96 µM)	16 (≈ 35.8 µM)	16 (≈ 35.8 µM)	32 (≈ 71.7 µM)	O=c1[nH]c(NCc2ccc(Cl)c(Cl)c2)nc2cnn(CCS(=O)(=O)CCO)c12 [Compound 164, 5-((3,4-dichlorobenzyl)amino)-1-(2-((2-hydroxyethyl)sulfonyl)ethyl)-1H-pyrazolo[4,3-d]pyrimidin-7(6H)-one]	–	–	–	–	–	–	–
> 64	> 64	> 64	>64 µg/mL	16 (≈ 28.2 µM)	8 (≈ 14.1 µM)	4 (≈ 7.06 µM)	> 64	CC(C)(C)OC(=O)N1CCN(CCOCCn2ncc3nc(NCc4ccc(Cl)c(Cl)c4)[nH]c(=O)c32)CC1 [Compound 166, tert-butyl 4-[2-[2-[5-[(3,4-dichlorophenyl)methylamino]-7-oxo-6H-pyrazolo[4,3-d]pyrimidin-1-yl]ethoxy]ethyl]piperazine-1-carboxylate]	–	–	–	–	–	–	–
8 (≈ 19.4 µM)	8 (≈ 19.4 µM)	> 64	>64 µg/mL	8 (≈ 19.4 µM)	4 (≈ 9.7 µM)	4 (≈ 9.7 µM)	8 (≈ 19.4 µM)	O=c1[nH]c(NCc2ccc(Cl)c(Cl)c2)nc2cnn(CCOCCCO)c12 [Compound 168, 5-[(3,4-dichlorophenyl)methylamino]-1-[2-(3-hydroxypropoxy)ethyl]-6H-pyrazolo[4,3-d]pyrimidin-7-one]	–	–	–	–	–	–	–
8 (≈ 19.4 µM)	8 (≈ 19.4 µM)	> 64	>64 µg/mL	8 (≈ 19.4 µM)	4 (≈ 9.7 µM)	2 (≈ 4.85 µM)	8 (≈ 19.4 µM)	O=c1[nH]c(NCc2ccc(Cl)c(Cl)c2)nc2cnn(CCCOCCO)c12 [Compound 169, 5-[(3,4-dichlorophenyl)methylamino]-1-[3-(2-hydroxyethoxy)propyl]-6H-pyrazolo[4,3-d]pyrimidin-7-one]	–	–	–	–	–	–	–
4	–	> 64	>64. ug/ml	8	–	1	4	Cl.O=c1[nH]c(NCc2ccc(Cl)c(Cl)c2)nc2cnn(CCOc3cccnc3)c12 [Compound 170, 5-((3,4-dichlorobenzyl)amino)-1-(2-(pyridin-3-yloxy)ethyl)-1H-pyrazolo[4,3-d]pyrimidin-7(6H)-one hydrochloride]	–	2/2	–	–	4/1	–	–
16 (≈ 38 µM)	16 (≈ 38 µM)	> 64	>64 µg/mL	8 (≈ 19 µM)	8 (≈ 19 µM)	4 (≈ 9.5 µM)	32 (≈ 76 µM)	O=c1[nH]c(NCc2ccc(Cl)c(Cl)c2)nc2cnn(Cc3coc(CO)n3)c12 [Compound 171, 5-((3,4-dichlorobenzyl)amino)-1-((2-(hydroxymethyl)oxazol-4-yl)methyl)-1H-pyrazolo[4,3-d]pyrimidin-7(6H)-one]	–	–	–	–	–	–	–
8	–	> 64	>64 µg/mL	8	–	2	8	Cl.O=c1[nH]c(NCc2ccc(Cl)c(Cl)c2)nc2cnn(CCOc3ccc(CO)nc3)c12 [Compound 174, 5-((3,4-dichlorobenzyl)amino)-1-(2-((6-(hydroxymethyl)pyridin-3-yl)oxy)ethyl)-1H-pyrazolo[4,3-d]pyrimidin-7(6H)-one hydrochloride]	–	8/8	–	–	2/2	–	–
> 64	> 64	> 64	>64 µg/mL	> 64	> 64	> 64	> 64	Cl.O=C(O)c1ccc(OCCn2ncc3nc(NCc4ccc(Cl)c(Cl)c4)[nH]c(=O)c32)cn1 [Compound 175, 5-(2-(5-((3,4-dichlorobenzyl)amino)-7-oxo-6,7-dihydro-1H-pyrazolo[4,3-d]pyrimidin-1-yl)ethoxy)picolinic acid hydrochloride]	–	–	–	–	–	–	–
